Measurements: patent US9469682B2, “Methods of treatment using natriuretic polypeptides” (Mayo Foundation for Medical Education and Research, priority 2006, dated 2016)

Columns and labels:
normal dogs = experiment: Intravenous bolus of polypeptide in normal dogs (renal, haemodynamic and hormonal effects); assay type: in vivo, dog; details: 25 μg per kg IV bolus; for mean arterial blood pressure: FIG. 6; for renal blood flow: FIG. 8; for vasodilatory effects: concluded from mean arterial blood pressure and renal blood flow; for plasma vasopressin levels: FIG. 7
Experimental: Polypeptides with the sequences set forth in FIGS. 1-3 were designed and synthesized. The polypeptide set forth in FIG. 1 is referred to as an ABC-NP polypeptide; the polypeptide set forth in FIG. 2 is referred to as an ABC-NP1 polypeptide; and the polypeptide set forth in FIG. 3 is referred to as a BC-NP2 polypeptide. The biological effects of intravenous ABC-NP, ABC-NP1, or BC-NP2 infusion were tested in normal dogs. Briefly, five normal dogs were infused with 25 μg of ABC-NP, ABC-NP1, or BC-NP2 per kg administered as an IV bolus. Urinary sodium excretion, urine flow, mean arterial blood pressure, plasma vasopressin levels, and renal blood flow were measured as described elsewhere (Chen et al., Am. J. Physiol. Regul. Integr. Comp. Physiol., 288: R1093-R1097 (2005) and Haber et al., J. Clin. Endocrinol. Metab., 29:1349-1355 ([…])). The results were compared to results obtained from dogs treated with 25 μg of BNP per kg administered as an IV bolus.

[1] = test system: human cardiac fibroblasts; experiment: cGMP generation in cardiac fibroblast cells (competitive RIA); assay type: cell-based; details: 10^−11 M, 10^−8 M, or 10^−6 M for 10 minutes, FIGS. 9-11
Experimental: The biological effects of ABC-NP, ABC-NP1, or BC-NP2 on cardiac fibroblast cells were tested in vitro. Briefly, 80-90% confluent cardiac fibroblast cells were incubated in Hank's balanced salt solution (InVitrogen) containing 20 mmol/L N-[2-hydroxyethyl]piperazine-N′[2-ethanesulfonic acid], 0.1% bovine serum albumin, and 0.5 mmol/L 3-isobutyl-1-methylzanthine (Sigma). Treated cells received ANP (10^−6M), BNP (10^−6M), CNP (10^−6M), ABC-NP (10^−11M, 10^−8M, or 10^−6M), ABC-NP1 (10^−11 M, 10^−8 M, or 10^−6 M), or BC-NP2 (10^−11M, 10^−8 M, or 10^−6 M) for 10 minutes. Cells were lysed in 6% TCA and sonicated for 10 minutes. The samples were ether extracted four times in four volumes of ether, dried, and reconstituted in 300 μL cGMP assay buffer. The samples were assayed using a competitive RIA cGMP kit (Perkin-Elmer, Boston, Mass.). Briefly, samples and standards were incubated with 100 μL anti-human cGMP polyclonal antibody and I^125-antigen for 18 hours. cGMP assay buffer was added to the samples, and they were centrifuged for 20 minutes at 2500 rpm. The free fraction was aspirated off; the bound fraction was counted; and concentrations determined Samples were corrected for dilution factors, and values were expressed as pmoles/mL. There is no cross-reactivity with ANP, BNP, or CNP, and there is <0.001% reactivity with cAMP, GMP, GDP, ATP, and GTP.

Substance	mean arterial blood pressure (normal dogs)	renal blood flow (normal dogs)	renal effects as compared to ABC-NP (normal dogs; FIGS. 4 and 5)	vasodilatory effects (normal dogs)	cGMP activation [1]	plasma vasopressin levels (normal dogs)	prolonged aquaretic and diuretic renal actions (normal dogs; FIGS. 4 and 5)	aquaretic and natriuretic effects (urinary sodium excretion, urine flow) (normal dogs; FIGS. 4 and 5)
BC-NP2: 28-residue polypeptide: human CNP 1-22 with positions 15-17 changed to arginine, glutamic acid, alanine, then human BNP residues 27-32 (GLSKGCFGLKLDRIREASGLGCKVLRRH; combination of SEQ ID NOs2 and 3)	did not result in a decrease	did not result in a decrease in mean arterial blood pressure or an increase in renal blood flow	about 50%	does not have vasodilatory effects	did not	–	–	–
BNP: natriuretic peptide of myocardial cell origin; main form a 32 amino acid polypeptide with a ring structure; comparator [reference compound]	–	–	–	–	–	increased	–	–
ABC-NP1: 33-residue polypeptide: human mature ANP residues 11-15, human mature CNP residues 1-22, human mature BNP residues 27-32 (RMDRIGLSKGCFGLKLDRIGSMSGLGCKVLRRH; combination of SEQ ID NOs1, 7, and 3)	reduction	increase	–	–	activated cGMP	strong trend for increasing	no prolonged aquaretic and diuretic renal actions observed	–
ABC-NP: 33-residue polypeptide: human ANP residues 11-15, human CNP 1-22 with positions 15-17 changed to Arg-Glu-Ala, human BNP residues 27-32 (RMDRIGLSKGCFGLKLDRIREASGLGCKVLRRH; combination of SEQ ID NOs1, 2, and 3)	no effect	–	–	does not have vasodilatory effects	did not	did not increase	–	resulted in aquaretic and natriuretic effects
